Measurements taken from PubChem BioAssay AID2060888 (Molecular Pharmacology Branch, DTP, NCI, 2025).

Tested on: 695427-040-R-J1-PDC complex spheroid viability
Assay: Anticancer human tumor 695427-040-R-J1-PDC patient-derived colon adenocarcinoma cell line growth inhibition [RAS]
Conditions: for IC50: curve of first compound; for viability, T/C: stronger effect = lower value
Method in brief: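 Tumour cells grown as complex spheroids with HUVEC endothelial cells and mesenchymal stem cells, treated with RAS pathway inhibitor combinations. Each agent spans half-log steps from near clinical Cmax, or 10 microM where Cmax is unknown.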
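Further: viability read after seven days of drug exposure.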
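Wherever viability, T/C is given: 100% = DMSO vehicle control viability.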

## CC(=O)OC12COC1CC(O)C1(C)C(=O)C(O)C3=C(C)C(OC(=O)C(O)C(NC(=O)OC(C)(C)C)c4ccccc4)CC(O)(C(OC(=O)c4ccccc4)C21)C3(C)C (centres undefined) + C=CC(=O)N1CCN(c2nc(OCC3CCCN3C)nc3c(F)c(-c4nc(N)cc(C)c4C(F)(F)F)c(Cl)cc23)C(C)C1
Second compound 0.00316 µM
  IC50: > 10 µM
Second compound 0.01 µM
  IC50: > 10 µM
Second compound 0.0316 µM
  IC50: > 10 µM
Second compound 0.1 µM
  IC50: > 10 µM
Second compound 0.316 µM
  IC50: > 10 µM
Second compound 1 µM
  IC50: > 10 µM
Second compound 0.00316 µM, first compound 0.0316 µM
  viability, T/C: 67.3%
Second compound 0.00316 µM, first compound 0.1 µM
  viability, T/C: 69%
Second compound 0.00316 µM, first compound 0.316 µM
  viability, T/C: 74.2%
Second compound 0.00316 µM, first compound 1 µM
  viability, T/C: 78.9%
Second compound 0.00316 µM, first compound 3.16 µM
  viability, T/C: 91.5%
Second compound 0.00316 µM, first compound 10 µM
  viability, T/C: 98%
Second compound 0.01 µM, first compound 0.0316 µM
  viability, T/C: 71.8%
Second compound 0.01 µM, first compound 0.1 µM
  viability, T/C: 66.8%
Second compound 0.01 µM, first compound 0.316 µM
  viability, T/C: 71%
Second compound 0.01 µM, first compound 1 µM
  viability, T/C: 79.7%
Second compound 0.01 µM, first compound 3.16 µM
  viability, T/C: 93%
Second compound 0.01 µM, first compound 10 µM
  viability, T/C: 89.3%
Second compound 0.0316 µM, first compound 0.0316 µM
  viability, T/C: 71%
Second compound 0.0316 µM, first compound 0.1 µM
  viability, T/C: 72.8%
Second compound 0.0316 µM, first compound 0.316 µM
  viability, T/C: 77.2%
Second compound 0.0316 µM, first compound 1 µM
  viability, T/C: 78%
Second compound 0.0316 µM, first compound 3.16 µM
  viability, T/C: 83.7%
Second compound 0.0316 µM, first compound 10 µM
  viability, T/C: 89.5%
Second compound 0.1 µM, first compound 0.0316 µM
  viability, T/C: 70.6%
Second compound 0.1 µM, first compound 0.1 µM
  viability, T/C: 71.3%
Second compound 0.1 µM, first compound 0.316 µM
  viability, T/C: 74%
Second compound 0.1 µM, first compound 1 µM
  viability, T/C: 76.2%
Second compound 0.1 µM, first compound 3.16 µM
  viability, T/C: 93.6%
Second compound 0.1 µM, first compound 10 µM
  viability, T/C: 96.9%
Second compound 0.316 µM, first compound 0.0316 µM
  viability, T/C: 75.2%
Second compound 0.316 µM, first compound 0.1 µM
  viability, T/C: 73.6%
Second compound 0.316 µM, first compound 0.316 µM
  viability, T/C: 83.8%
Second compound 0.316 µM, first compound 1 µM
  viability, T/C: 75%
Second compound 0.316 µM, first compound 3.16 µM
  viability, T/C: 93.1%
Second compound 0.316 µM, first compound 10 µM
  viability, T/C: 95.7%
Second compound 1 µM, first compound 0.0316 µM
  viability, T/C: 76.4%
Second compound 1 µM, first compound 0.1 µM
  viability, T/C: 68.5%
Second compound 1 µM, first compound 0.316 µM
  viability, T/C: 77.3%
Second compound 1 µM, first compound 1 µM
  viability, T/C: 83.4%
Second compound 1 µM, first compound 3.16 µM
  viability, T/C: 88.7%
Second compound 1 µM, first compound 10 µM
  viability, T/C: 91.8%

## CC(C)NCC(C(=O)N1CCN(c2ncnc3c2C(C)CC3O)CC1)c1ccc(Cl)cc1 (centres undefined) + CCn1c(-c2cccnc2C(C)OC)c2c3cc(ccc31)N1CCOC(CC(NC(=O)C(C(C)C)N(C)C(=O)C3(F)CCN(C(=O)C#CC(C)(C)N(C)C)CC3)C(=O)N3CCCC(N3)C(=O)OCC(C)(C)C2)C1
Second compound 0.000949 µM
  IC50: > 10 µM
Second compound 0.003 µM
  IC50: > 10 µM
Second compound 0.00949 µM
  IC50: > 10 µM
Second compound 0.03 µM
  IC50: > 10 µM
Second compound 0.0949 µM
  IC50: > 10 µM
Second compound 0.3 µM
  IC50: > 10 µM
Second compound 0.000949 µM, first compound 0.0316 µM
  viability, T/C: 86%
Second compound 0.000949 µM, first compound 0.1 µM
  viability, T/C: 91.1%
Second compound 0.000949 µM, first compound 0.316 µM
  viability, T/C: 91.7%
Second compound 0.000949 µM, first compound 1 µM
  viability, T/C: 68.2%
Second compound 0.000949 µM, first compound 3.16 µM
  viability, T/C: 62.6%
Second compound 0.000949 µM, first compound 10 µM
  viability, T/C: 60.8%
Second compound 0.003 µM, first compound 0.0316 µM
  viability, T/C: 103%
Second compound 0.003 µM, first compound 0.1 µM
  viability, T/C: 91.4%
Second compound 0.003 µM, first compound 0.316 µM
  viability, T/C: 65.9%
Second compound 0.003 µM, first compound 1 µM
  viability, T/C: 84.7%
Second compound 0.003 µM, first compound 3.16 µM
  viability, T/C: 74.7%
Second compound 0.003 µM, first compound 10 µM
  viability, T/C: 54.6%
Second compound 0.00949 µM, first compound 0.0316 µM
  viability, T/C: 113%
Second compound 0.00949 µM, first compound 0.1 µM
  viability, T/C: 89.5%
Second compound 0.00949 µM, first compound 0.316 µM
  viability, T/C: 59.9%
Second compound 0.00949 µM, first compound 1 µM
  viability, T/C: 85.2%
Second compound 0.00949 µM, first compound 3.16 µM
  viability, T/C: 63.4%
Second compound 0.00949 µM, first compound 10 µM
  viability, T/C: 63.5%
Second compound 0.03 µM, first compound 0.0316 µM
  viability, T/C: 91.6%
Second compound 0.03 µM, first compound 0.1 µM
  viability, T/C: 75.3%
Second compound 0.03 µM, first compound 0.316 µM
  viability, T/C: 81.5%
Second compound 0.03 µM, first compound 1 µM
  viability, T/C: 83.8%
Second compound 0.03 µM, first compound 3.16 µM
  viability, T/C: 59.2%
Second compound 0.03 µM, first compound 10 µM
  viability, T/C: 56.9%
Second compound 0.0949 µM, first compound 0.0316 µM
  viability, T/C: 88.5%
Second compound 0.0949 µM, first compound 0.1 µM
  viability, T/C: 88.7%
Second compound 0.0949 µM, first compound 0.316 µM
  viability, T/C: 72.6%
Second compound 0.0949 µM, first compound 1 µM
  viability, T/C: 70.8%
Second compound 0.0949 µM, first compound 3.16 µM
  viability, T/C: 77.1%
Second compound 0.0949 µM, first compound 10 µM
  viability, T/C: 71.2%
Second compound 0.3 µM, first compound 0.0316 µM
  viability, T/C: 105%
Second compound 0.3 µM, first compound 0.1 µM
  viability, T/C: 72.8%
Second compound 0.3 µM, first compound 0.316 µM
  viability, T/C: 79.8%
Second compound 0.3 µM, first compound 1 µM
  viability, T/C: 74.2%
Second compound 0.3 µM, first compound 3.16 µM
  viability, T/C: 57%
Second compound 0.3 µM, first compound 10 µM
  viability, T/C: 56.2%
